Columns and labels:
[1] = tested on: PTP1B expression in insulin-resistant HepG2 cells; assay: PTP1B expression level by Western blot; format: cell-based, human
Protocol: (§1) With minor modifications, the insulin resistant HepG2 cell model was developed according to the previous method. In short, in 96-well plats (2 × 10^5 cells/well), HepG2 cells were cultured. When they reached a confluence, 10^−6 M insulin was treated for 24 h on serum-free MEM to induce insulin resistance, then the cells were incubated for 30 min with 100 nM insulin and harvested for assays as described below.
Insulin-resistant HepG2 cells (5 × 10^5 cells/well) were treated for 24 h in 6-well plates with different concentrations of coumarins. The cells were washed with ice-cold PBS three times, collected, then lysed with a sample buffer [50 mM (4-(2-hydroxyethyl)-1-piperazineethanessulfonic acid) pH 7.5, 150 mM NaCl, 2.5 mM EDTA, 0.5% NP-40, 1 mM PMSF, 1 mM DTT, 0.2% aprotinin, 0.5% leupeptin, 20 mM NaF, and 1 mM Na3VO4] on ice after stimulation with 100 nM insulin at 37 °C for 30 min. Insoluble materials were extracted by centrifugation for 20 min at 25,000 × g after incubation for 30 min. An updated Bradford protein assay kit calculated the protein concentrations. Total protein (40 μg) was electrophoresed into a polyvinylidene difluoride (PVDF) membrane by use of a dodecyl sulfate-polyacrylamide gel electrophoresis (SDS-PAGE). In a blocking buffer, membranes were blocked (5% skim milk in Tris-buffered saline containing 0.1% Tween 20 (TBST) and incubated overnight at 4 °C with primary antibodies, followed by incubation at room temperature for 4 h with suitable secondary antibodies. Three times for 30 min with TBST, the membranes were washed. The Supersignal West Pico chemiluminescence substrate (Pierce, Rockford, IL, USA) has been used to visualize the protein bands and pictured on X-ray film (Kodak, Rochester, NY, USA) according to the manufacturer’s instructions. Using CS analyzer software (Atto Corp., Tokyo, Japan), bands were scanned and quantitated and the control was set to 1. As the internal control, β-actin was used. For determining the molecular weights of protein bands, prestained blue protein markers were used. Comparisons were made between mean band densities in same gels. Autoradiography visualized protein bands and measured the intensities using Quantity One software (Bio-Rad Laboratories, Hercules, CA, USA).

[2] = target: T1, PTP1B (human recombinant) (Homo sapiens, UniProt P18031); assay: PTP1B inhibitory assay with pNPP substrate, with Dixon and Lineweaver-Burk kinetics; format: biochemical; conditions: for Protein Tyrosine Phosphatase 1B Inhibition Type: determined by Dixon and Lineweaver-Burk plots; for Ki: determined by the Dixon plot, read-out: Protein Tyrosine Phosphatase 1B Ki Value; for IC50: pNPP substrate, mean ± SEM of triplicate, read-out: Protein Tyrosine Phosphatase 1B IC50
T1 construct: purchased Biomol International LP (Plymouth Meeting, Pennsylvania, USA)
T1 sequence (P18031 1-435): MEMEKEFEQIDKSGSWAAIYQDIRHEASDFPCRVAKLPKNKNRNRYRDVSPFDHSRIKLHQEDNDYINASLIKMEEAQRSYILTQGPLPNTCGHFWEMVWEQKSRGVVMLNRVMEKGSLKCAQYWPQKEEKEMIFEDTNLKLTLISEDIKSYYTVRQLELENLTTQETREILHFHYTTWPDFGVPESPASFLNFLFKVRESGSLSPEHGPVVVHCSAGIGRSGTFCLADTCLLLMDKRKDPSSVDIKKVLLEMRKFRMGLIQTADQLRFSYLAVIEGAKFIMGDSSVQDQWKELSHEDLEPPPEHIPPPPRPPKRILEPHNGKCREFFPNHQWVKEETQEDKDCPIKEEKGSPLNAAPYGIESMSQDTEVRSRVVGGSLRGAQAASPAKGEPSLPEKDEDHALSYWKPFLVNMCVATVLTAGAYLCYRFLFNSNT
Protocol: The inhibitory activity of PTP1B has been tested using pNPP previously reported in our paper. The amount of p-nitrophenyl produced after enzymatic dephosphorylation of pNPP was calculated using a microplate spectrophotometer (Molecular Devices) to calculate absorbance at 405 nm.
(§2) Two kinetic methods using Lineweaver-Burk and Dixon plots have been complemented for the determination of the kinetic process. PTP1B inhibition mode was calculated at different pNPP substrate concentration (0.5, 1.0, and 2.0 mM) in the absence or presence of different coumarins test concentrations (0, 0.8, 4.0, and 20.0 µM for (+)-trans-decursidinol; 0, 2.0, 10.0, and 50 µM for Pd-C-I and Pd-C-II; 0, 4.0, 20.0, and 100 µM for Pd-C-III) using Lineweaver-Burk and Dixon plots. By monitoring the effects of different concentrations of the substrates in the Dixon plots (single reciprocal plot), each enzymatic inhibition of test coumarins was assessed. Additionally, in the presence of different concentrations of substrate: 2.5, 1.25, and 0.625 mM pNPG, the Lineweaver-Burk and Dixon plots for α-glucosidase inhibition of coumarins were also performed. The test concentrations of the coumarins in the α-glucosidase kinetic analysis were as follows 0, 7.81, 15.62, 31.25, and 62.5 µM for (+)-trans-decursidinol, Pd-C-I, and Pd-C-II; 0, 15.62, 31.25, 62.5, and 125 µM for Pd-C-III. The PTP1B and α-glucosidase assay methods were the same for both enzymatic procedures. The inhibition constants (Ki) were calculated by interpretation of the Dixon plots, where the value of the x-axis means -Ki.

[3] = Total ROS generation inhibitory activity (rat kidney homogenate, DCFH-DA); format: biochemical; conditions: mean ± SEM of triplicate
Protocol: The generation of ROS was calculated using the ROS-sensitive fluorescence indicator (DCFH-DA) of 7-dichlorofluorescein diacetate. In a 50 mM potassium phosphate buffer, rat kidney homogenates (Tissue bank from Pusan National University, Busan, S. Korea) were prepared from the kidneys of newly killed male Wistar rats weighing between 150–200 g and 10 μg of each test sample was applied to 190 μL of kidney post mitochondrial fraction. The mixture was loaded in a potassium phosphate buffer with 50 μL of DCFH-DA (12.5 mM) and shaken for 5 min. On a microplate fluorescence spectrophotometer FLX 800 (Bio-Tek Instruments Inc., Winooski, UT, USA), the fluorescence of 2′,7′-dichlorofluorescein (DCF), the oxidation product from DCFH-DA, was measured at an excitation wavelength of 485 nm and an emission wavelength of 530 nm for 30 min. As a positive control, Trolox, was used.

[4] = tested on: insulin-resistant HepG2 cells; assay: 2-NBDG glucose uptake assay; format: cell-based, human; conditions: 24 h, insulin-stimulated 2-NBDG uptake
Protocol: as §1
In accordance with a previous method the glucose uptake assay was established with some modifications. Briefly, HepG2 cells were cultured in 96-well plate to confluence and then treated with 10^−6 M insulin for 24 h to induce insulin resistance (based on a 49% decrease in glucose uptake) (data not shown). Different coumarins (5–40 µM) or 10 µM metformin (non-cytotoxic concentration) concentrations were added and incubated for 24 h, followed by 100 nM insulin and cells incubation for 30 min, respectively. 2-NBDG uptake was measured following this incubation. The cells were incubated with 40 μM of 2-NBDG (dissolved in PBS with 1% BSA) for 20 min. The cells were washed thrice with ice-cold PBS to avoid the reaction, and the fluorescence intensity of 2-NBDG was calculated at 485 nm of excitation and 528 nm of emission on a microplate reader (Bio-Tek Instruments Inc., Winooski, VT, USA). Five replication wells have been set up, and three times each experiment has been replicated.

[5] = Inhibition of ONOO−-mediated albumin (protein tyrosine) nitration, Western blot; format: biochemical
Protocol: ONOO^−-mediated protein tyrosine nitration was evaluated with minor modifications by using in our previously reported method.

[6] = tested on: t-BHP-treated HepG2 cells; assay: Intracellular ROS level in t-BHP-treated HepG2 cells (DCFH-DA); format: cell-based, human; conditions: 200 μM t-BHP; for ROS generation: 10–40 μM
Protocol: A fluorometric assay was used to measure the intracellular ROS level in HepG2 cells applying the oxidant-sensitive fluorescence probe 2, DCFH-DA [47]. In order to determine the extent of intracellular ROS scavenging activity, HepG2 cells were seeded into black 96-well plates at a density of 2.0 × 10^5 cells/well and incubated with coumarins at a concentrations range of 2.5–40 µM for 1 h. To induce ROS production, cells were subsequently exposed to 200 µM tert-butyl hydroperoxide (t-BHP) for 30 min and were then incubated for 30 min with DCFH-DA (20 μM). At an excitation wavelength of 485 nm and an emission wavelength of 530 nm, the resulting fluorescence intensities were measured using a fluorescence microplate reader (FL × 800; Bio-Tek Instruments Inc., Winooski, UT, USA).

yeast α-glucosidase = yeast α-glucosidase (Saccharomyces cerevisiae, UniProt P53341); assay: α-Glucosidase inhibitory assay with pNPG substrate, with Dixon and Lineweaver-Burk kinetics; format: biochemical; conditions: determined by Dixon and Lineweaver-Burk plots
Sequence of yeast α-glucosidase (P53341 whole entry): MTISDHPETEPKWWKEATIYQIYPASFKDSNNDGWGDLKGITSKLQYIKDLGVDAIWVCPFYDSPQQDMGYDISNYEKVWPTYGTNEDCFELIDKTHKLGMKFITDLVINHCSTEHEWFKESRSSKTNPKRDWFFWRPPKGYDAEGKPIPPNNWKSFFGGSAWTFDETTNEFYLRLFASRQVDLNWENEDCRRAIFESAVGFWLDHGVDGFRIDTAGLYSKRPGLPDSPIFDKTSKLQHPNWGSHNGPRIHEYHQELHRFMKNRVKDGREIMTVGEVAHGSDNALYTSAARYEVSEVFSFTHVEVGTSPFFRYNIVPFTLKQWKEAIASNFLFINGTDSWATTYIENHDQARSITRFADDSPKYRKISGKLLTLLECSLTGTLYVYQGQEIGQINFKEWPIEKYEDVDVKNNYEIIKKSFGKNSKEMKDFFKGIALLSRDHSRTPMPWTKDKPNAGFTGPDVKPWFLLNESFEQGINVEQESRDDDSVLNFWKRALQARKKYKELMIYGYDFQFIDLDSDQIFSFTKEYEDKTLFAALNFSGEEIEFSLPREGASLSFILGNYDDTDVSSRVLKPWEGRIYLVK
Protocol: The enzyme inhibition analysis was carried out using the technique previously reported in our paper. The absorbance was recorded at 405 nm immediately afterward using the microplate spectrophotometer (Molecular Devices, Sunnyvale, CA, USA).
as §2

[7] = ONOO− scavenging activity (DHR 123); format: biochemical; conditions: mean ± SEM of triplicate
Protocol: ONOO^− scavenging activity was measured using a slight modification of the method reported by Kooy’s that monitors output of fluorescent rhodamine 123 from non-fluorescent DHR 123 in the presence of ONOO^−. The rhodamine buffer (pH 7.4) consisted of 90 mM sodium chloride, 50 mM sodium phosphate dibasic, 5 mM potassium chloride, 100 µM diethylenetriaminepentaacetic acid and 50 mM sodium phosphate monobasic. DHR 123 final concentration was 5 µM. The buffer used in this assay was prepared and put on ice before use. In 10% DMSO, the samples were dissolved and authentic ONOO^− (10 µM) dissolved in 0.3 N sodium hydroxide was added. Background and final fluorescent intensities were measured after 5 min. The fluorescence intensity of the oxidized DHR 123 was measured with a microplate fluorescence reader (Bio-Tek Instruments, Inc., FLx 800, Winooski, UT, USA) on the excitation and emission wavelengths of 480 and 530 nm, respectively. As a standard control, L-penicillamine was used.

[8] = Homo sapiens, HepG2, pretreated 1 h, read-out: ROS production, inhibition

Row | SMILES | PTP1B expression ([1]; concentration not given) | Protein Tyrosine Phosphatase 1B Inhibition Type [2] | Ki [2] | IC50 [2] | IC50 [3] | relative glucose uptake percentage ([4]; 40 µM) | ONOO−-mediated albumin nitration ([5]; pretreatment at 12.5–100 µM) | ROS generation [6] | α-Glucosidase Inhibition Type (yeast α-glucosidase) | IC50 [7] | inhibition at 10 µM [6, 8] | relative glucose uptake percentage ([4]; 10 µM) | PTP1B expression ([1]; at 10 and 15 µM, 24 h) | fold more active than decursinol ([2]; versus decursinol of the earlier work, enzyme not named in the sentence (PTP1B and α-glucosidase discussed)) | relative glucose uptake percentage ([4]; 15 µM) | ONOO−-mediated albumin nitration ([5]; pretreatment at 5–40 µM) | inhibition at 5 µM ([6]; Homo sapiens, HepG2, 5 μM, pretreated 1 h, read-out: ROS production, inhibition) | inhibition at 15 µM ([6]; Homo sapiens, HepG2, 15 μM, pretreated 1 h, read-out: ROS production, inhibition) | PTP1B expression ([1]; at 20 and 40 µM, 24 h)
1 | C/C=C\C(=O)O[C@H]1[C@H](OC(C)=O)c2cc3ccc(=O)oc3cc2OC1(C)C [Pd-C-III] | significantly downregulated PTP1B’s expression | Mixed | 16 µM | 12 ± 0.43 µM | 9.69 ± 0.21 µM | 117% | pronounced dose-dependent inhibition | significantly inhibited ROS generation | Noncompetitive | 1.44 ± 0.22 µM | – | – | – | – | – | – | – | – | –
2 | Cc1c(C)c2c(c(C)c1O)CCC(C)(C(=O)O)O2 (centres unmarked) [Trolox, trolox, reference compound] | – | – | – | – | 3.29 ± 0.26 µM | – | – | – | – | – | ~49% | – | – | – | – | – | – | – | –
3 | CN(C)C(=N)N=C(N)N [metformin, reference compound] | – | – | – | – | – | – | – | – | – | – | – | 129% | – | – | – | – | – | – | –
4 | CC1(C)Oc2cc3oc(=O)ccc3cc2[C@@H](O)[C@@H]1O [(+)-trans-decursidinol] | – | Competitive | 2.84 µM | 2.33 ± 0.07 µM | 9.77 ± 0.32 µM | – | – | – | Competitive | 4.57 ± 0.21 µM | 57.5% | – | diminished PTP1B’s expression | 25 times | 125% | significantly inhibited in a concentration-dependent manner | 75.5% | 43.4% | –
5 | CC(C)=CC(=O)O[C@@H]1c2cc3ccc(=O)oc3cc2OC(C)(C)[C@H]1O [Pd-C-II] | – | Competitive | 9.72 µM | 6.17 ± 0.31 µM | 10.8 ± 0.73 µM | 120% | pronounced dose-dependent inhibition | significantly inhibited ROS generation | Mixed | 3.77 ± 0.15 µM | – | – | – | – | – | – | – | – | downregulated PTP1B’s expression
6 | CC(C)=CC(=O)O[C@H]1[C@H](O)c2cc3ccc(=O)oc3cc2OC1(C)C [Pd-C-I] | – | Competitive | 6.21 µM | 4.32 ± 0.12 µM | 6.32 ± 0.41 µM | 128% | pronounced dose-dependent inhibition | significantly inhibited ROS generation | Mixed | 1.82 ± 0.44 µM | – | – | – | – | – | – | – | – | downregulated PTP1B’s expression
7 | CC(C)(S)[C@H](N)C(=O)O [L-Penicillamine, L-penicillamine, reference compound] | – | – | – | – | – | – | – | – | – | 1.86 ± 0.11 µM | – | – | – | – | – | – | – | – | –

Source: paper PMC7919472, “Insulin–Mimetic Dihydroxanthyletin-Type Coumarins from Angelica decursiva with Protein Tyrosine Phosphatase 1B and α-Glucosidase Inhibitory Activities and Docking Studies of Their Molecular Mechanisms” (Antioxidants, 2021)
